Measurements as given in patent US20090215906A1 (priority 2005, published 2009).
Like-named read-outs stand apart in the source and are kept apart here.

Tests used:
Male Baboons [1] = assay: Effects of Clomids on serum testosterone and prolactin in male baboons; assay type: in vivo, Baboon; conditions: 1.5 mg/kg for 12 days, in words
From the text: There were no changes in serum LH or FSH. […] There was also no change in body weight during the 12 day study.

Male Baboons [2] = assay: Effects of Clomids on serum cholesterol in male baboons; assay type: in vivo, Baboon; conditions: 1.5 mg/kg for 12 days
From the text: (§1) The samples analyzed were sera taken on the day of first treatment before being given test article (day 0), after 12 days of treatment (day 12) and 7 days after the last treatment (end or washout).

men = conditions: cited from earlier work
hypogonadal men [3] = test system: hypogonadal men
Description: (§2) Half of the men in each of the Androxal™ and placebo arms were randomized into cohorts that underwent in-clinic sessions on days 1 and 14 to determine pharmacokinetic parameters for Androxal™ as well as cyclical changes in testosterone. The placebo and Androxal™ doses were administered in a double blind fashion. The Androgel® cream was administered in an open label fashion. Half of the Androgel® patients underwent in-clinic sessions similar to the other patients in the study. Following the two week drug exposure patients were followed for an additional seven to ten days to determine the status of their testosterone levels.

hypogonadal men [4] = test system: hypogonadal men; remark: listed apart in the source
Description: as §2

Male Baboons [5] = assay: Effects of Clomids on clinical chemistry and hematology parameters in male baboons
From the text: as §1

Male Baboons [6] = conditions: in vivo, 1.5 mg/kg
From the text: as §1

[7] = men, after 2 months, Guay et al. 1995

effects on hematocrit (Male Baboons [6])	effects on the red blood cell population (Male Baboons [6])	SMILES	effect on total serum testosterone (Male Baboons [1])	serum cholesterol levels (in words) (Male Baboons [2])	LH, FSH, and testosterone (men; [7])	erectile dysfunction (men; [7])	semen quality or fertility (men; men, after 6 months of treatment, WHO study)	free and total testosterone (men; men, Tenover et al. 1987)	FSH, LH (men; young and old men after treatment, Tenover et al. 1987)	changes in testosterone from baseline testosterone levels (in words) (hypogonadal men [3]; all doses)	serum levels of LH (hypogonadal men [3]; during treatment)	reduction in triglycerides (hypogonadal men [4]; average, non-dose dependent, after two weeks of therapy) [%]	side effects different than placebo (hypogonadal men [4]; two week exposure)	counts of eosinophiles (Male Baboons [5]; 1.5 mg/kg for 12 days)	effects on the red blood cell population (Male Baboons [5]; 1.5 mg/kg for 12 days)	lymphocyte count (Male Baboons [5]; 1.5 mg/kg for 12 days)	serum creatinine values (Male Baboons [5]; between day 0 and Day 12)	per cent of granulocytes in the blood (Male Baboons [5]; very strong after the 7-day washout)
–	–	CCN(CC)CCOc1ccc(C(=C(Cl)c2ccccc2)c2ccccc2)cc1 [Clomid, clomiphene]	more variable total testosterone levels	slight increase	increase	no effects	no changes	increases	increased	–	–	–	–	–	–	–	–	–
–	–	CCN(CC)CCOc1ccc(/C(=C(\Cl)c2ccccc2)c2ccccc2)cc1 [Enclomid, trans-clomiphene]	significant increases	–	–	–	–	–	–	statistically significant changes	statistically increase	19.1	no side effects	raising	substantive effects	increase	no differences	lowering
substantive effects	substantive effects	CCN(CC)CCOc1ccc(/C(=C(/Cl)c2ccccc2)c2ccccc2)cc1 [Zuclomid, cis-clomiphene]	–	–	–	–	–	–	–	–	–	–	–	–	–	–	–	–
